We go through nine compounds from patent publication US20250051282A1, “COMPOUNDS FOR TREATING POLYQ-RELATED NEURODEGENERATIVE DISORDERS” (HANGZHOU JIJING PHARMACEUTICAL TECHNOLOGY LIMITED, priority 2021, published 2025).

Molecules are shown by their SMILES.

In this assay the test system is ATXN1(60Q). As to the kind of experiment: Daoy-ATXN1(60Q)-mATXN1 MSD assay (CTG normalized). It is filed as cell-based. Conditions: Daoy-Flag-ATXN1(60Q) stable cells, compound added Day 2, lysis Day 3, final DMSO 0.3%, read-out: Daoy-ATXN1(60Q)-mATXN1 MSD (CTG normalized) DC50.
`NC(=C1C(=O)Nc2ccc(Br)cc21)C1COc2ccccc2O1` (stereo not drawn) [Example 79, 3-(Amino(2,3-dihydrobenzo[b] [1,4]dioxin-2-yl)methylene)-5-bromoindolin-2-one]: the DC50 was more than 30 µM.

Consider `N/C(=C1\C(=O)Nc2ccc(Br)cc21)c1cc(O)c(Br)cn1` [Example 83, (Z)-3-(amino(5-bromo-4-hydroxypyridin-2-yl)methylene)-5-bromoindolin-2-one], for which the DC50 was more than 30 µM.

Turning to `N/C(=C1\C(=O)Nc2ccc(Br)cc21)c1cncc(O)c1` [Example 84, (Z)-3-(amino(5-hydroxypyridin-3-yl)methylene)-5-bromoindolin-2-one], the DC50 is less than 10 µM.

In the case of `C/C(=C1\C(=O)Nc2ccc(Br)cc21)c1cccc(O)c1` [Example 85, (E)-5-bromo-3-(1-(3-hydroxyphenyl)ethylidene)indolin-2-one], the DC50 was in the range of 10 to 30 µM.

With `C/C(=C1\C(=O)Nc2ccc(Br)cc21)c1ccc2[nH]c(=O)oc2c1` [Example 88, (E)-6-(1-(5-bromo-2-oxoindolin-3-ylidene)ethyl)benzo[d]oxazol-2(3H)-one], the DC50 is more than 30 µM.

Turning to `C/C(=C1\C(=O)Nc2ccc(Br)cc21)c1ccc(F)c(O)c1` [Example 92, (E)-5-bromo-3-(1-(4-fluoro-3-hydroxyphenyl)ethylidene) indolin-2-one], the DC50 was less than 10 µM.

Regarding `CC(=C1C(=O)Nc2ccc(C(F)(F)F)cc21)c1cccc(O)c1` [Example 95, 3-(1-(3-Hydroxyphenyl)ethylidene)-5-(trifluoromethyl) indolin-2-one], the DC50 was less than 10 µM.

For the compound `C/C(=C1\C(=O)Nc2ccc(Br)cc21)c1cc(O)c(O)c(Br)c1` [Example 98, 5-Bromo-3-(1-(3-bromo-4,5-dihydroxyphenyl)ethylidene)indolin-2-one], the DC50 was more than 30 µM.

For `CCC/C(=C1\C(=O)Nc2ccc(Br)cc21)c1cccc(O)c1` [Example 100, (E)-5-bromo-3-(1-(3-hydroxyphenyl)butylidene)indolin-2-one], the DC50 is less than 10 µM.
